# Measured values as given in ChEMBL document CHEMBL4196087 (Eur J Med Chem, 2018).
# Key:
# UO-31 [1] = assay: Antiproliferative activity against human UO31 cells after 48 hrs by SRB assay; type: functional; conditions: UO-31, 48 h
# HOP-92 = assay: Growth inhibition of human HOP92 cells at 10^-5 M incubated for 48 hrs by sulforhodamine B assay relative to control; type: functional; conditions: HOP-92, 48 h, read-out: GI
# MDA-MB-231 = assay: Growth inhibition of human MDA-MB-231 cells at 10^-5 M incubated for 48 hrs by sulforhodamine B assay relative to control; type: functional; conditions: MDA-MB-231, 48 h, read-out: GI
# SK-MEL-5 = assay: Growth inhibition of human SK-MEL-5 cells at 10^-5 M incubated for 48 hrs by sulforhodamine B assay relative to control; type: functional; conditions: SK-MEL-5, 48 h, read-out: GI
# NCI-H226 [2] = assay: Growth inhibition of human NCI-H226 cells at 10^-5 M incubated for 48 hrs by sulforhodamine B assay relative to control; type: functional; conditions: NCI-H226, 48 h, read-out: GI
# IGROV-1 [3] = assay: Antiproliferative activity against human IGROV1 cells after 48 hrs by SRB assay; type: functional; conditions: IGROV-1, 48 h, read-out: LC50 (the source's name)
# K562 = assay: Growth inhibition of human K562 cells at 10^-5 M incubated for 48 hrs by sulforhodamine B assay relative to control; type: functional; conditions: K562, 48 h, read-out: GI
# DNA topoisomerase 2-beta [4] = target: T1, DNA topoisomerase 2-beta (Homo sapiens, UniProt Q02880); assay: Potency index, ratio of doxorubicin IC50 to compound IC50 for inhibition of human topoisomerase-2B
# UO-31 [5] = assay: Growth inhibition of human UO31 cells at 10^-5 M incubated for 48 hrs by sulforhodamine B assay relative to control; type: functional; conditions: UO-31, 48 h, read-out: GI
# UO-31 [6] = assay: Cell cycle arrest in human UO31 cells assessed as apoptotic cells at 0.72 uM after 24 hrs by propidium iodide staining based flow cytometry (reference value: 0.49%); type: functional
# SNB-75 = assay: Growth inhibition of human SNB75 cells at 10^-5 M incubated for 48 hrs by sulforhodamine B assay relative to control; type: functional; conditions: SNB-75, 48 h, read-out: GI
# IGROV-1 [7] = assay: Potency index, ratio of doxorubicin IC50 to compound IC50 for antiproliferative activity against human IGROV1 cells; type: functional
# UO-31 [8] = assay: Antiproliferative activity against human UO31 cells after 48 hrs by MTT assay; type: functional, cell-based; conditions: UO-31, 48 h
# MDA-MB-468 [9] = assay: Growth inhibition of human MDA-MB-468 cells at 10^-5 M incubated for 48 hrs by sulforhodamine B assay relative to control; type: functional; conditions: MDA-MB-468, 48 h, read-out: GI
# UO-31 [10] = assay: Induction of apoptosis in human UO31 cells assessed as live cells at 0.72 uM after 24 hrs by Annexin V-FITC/propidium iodide staining based low cytometry (reference value: 97.84%); type: functional
# UO-31 [11] = assay: Potency index, ratio of doxorubicin IC50 to compound IC50 for antiproliferative activity against human UO31 cells; type: functional
# CCRF-CEM = assay: Growth inhibition of human CCRF-CEM cells at 10^-5 M incubated for 48 hrs by sulforhodamine B assay relative to control; type: functional; conditions: read-out: GI
# SF-539 = assay: Growth inhibition of human SF539 cells at 10^-5 M incubated for 48 hrs by sulforhodamine B assay relative to control; type: functional; conditions: SF-539, 48 h, read-out: GI
# UO-31 [12] = assay: Induction of apoptosis in human UO31 cells assessed as early apoptotic cells at 0.72 uM after 24 hrs by Annexin V-FITC/propidium iodide staining based flow cytometry (reference value: 0.19%); type: functional
# PC-3 = assay: Growth inhibition of human PC3 cells at 10^-5 M incubated for 48 hrs by sulforhodamine B assay relative to control; type: functional; conditions: PC-3, 48 h, read-out: GI
# UO-31 [13] = assay: Induction of apoptosis in human UO31 cells assessed as necrotic cells at 0.72 uM after 24 hrs by Annexin V-FITC/propidium iodide staining based flow cytometry (reference value: 0.08%); type: functional
# Bacillus subtilis = assay: Antibacterial activity against Bacillus subtilis at 37 degC measured after 24 hrs by agar disc diffusion method; type: functional
# MCF7 = assay: Growth inhibition of human MCF7 cells at 10^-5 M incubated for 48 hrs by sulforhodamine B assay relative to control; type: functional; conditions: MCF7, 48 h, read-out: GI
# UO-31 [14] = assay: Cell cycle arrest in human UO31 cells assessed as accumulation at pre-G1 phase at 0.72 uM after 24 hrs by propidium iodide staining based flow cytometry relative to control; type: functional
# UO-31 [15] = assay: Cell cycle arrest in human UO31 cells assessed as accumulation at G2 phase at 0.72 uM after 24 hrs by propidium iodide staining based flow cytometry (reference value: 5.49%); type: functional
# HL-60(TB) = assay: Growth inhibition of human HL-60(TB) cells at 10^-5 M incubated for 48 hrs by sulforhodamine B assay relative to control; type: functional; conditions: HL-60, 48 h, read-out: GI
# T47D = assay: Growth inhibition of human T47D cells at 10^-5 M incubated for 48 hrs by sulforhodamine B assay relative to control; type: functional; conditions: read-out: GI
# DNA topoisomerase 2-beta [16] = target: T1, DNA topoisomerase 2-beta; assay: Potency index, ratio of amsacrine IC50 to compound IC50 for inhibition of human topoisomerase-2B
# UO-31 [17] = assay: Cell cycle arrest in human UO31 cells assessed as accumulation at G1 phase at 0.72 uM after 24 hrs by propidium iodide staining based flow cytometry (reference value: 69.55%); type: functional
# UO-31 [18] = assay: Cell cycle arrest in human UO31 cells assessed as accumulation at G2/M phase at 0.72 uM after 24 hrs by propidium iodide staining based flow cytometry relative to control; type: functional
# LOX IMVI = assay: Growth inhibition of human LOXIMVI cells at 10^-5 M incubated for 48 hrs by sulforhodamine B assay relative to control; type: functional; conditions: read-out: GI
# IGROV-1 [19] = assay: Growth inhibition of human IGROV1 cells at 10^-5 M incubated for 48 hrs by sulforhodamine B assay relative to control; type: functional; conditions: IGROV-1, 48 h, read-out: GI
# NCI-H226 [20] = assay: Antiproliferative activity against human NCI-H226 cells after 48 hrs by SRB assay; type: functional; conditions: NCI-H226, 48 h, read-out: LC50 (the source's name)
# MOLT-4 = assay: Growth inhibition of human MOLT4 cells at 10^-5 M incubated for 48 hrs by sulforhodamine B assay relative to control; type: functional; conditions: MOLT-4, 48 h, read-out: GI
# UO-31 [21] = assay: Induction of apoptosis in human UO31 cells assessed as caspase-3 activation by measuring active caspase-3 level at 0.72 uM by […] (reference value: 66 pg/ml); type: functional
# Staphylococcus aureus = assay: Antibacterial activity against Staphylococcus aureus at 37 degC measured after 24 hrs by agar disc diffusion method; type: functional
# UO-31 [22] = assay: Induction of apoptosis in human UO31 cells assessed as late apoptotic cells at 0.72 uM after 24 hrs by Annexin V-FITC/propidium iodide staining based flow cytometry (reference value: 0.22%); type: functional
# A498 = assay: Growth inhibition of human A498 cells at 10^-5 M incubated for 48 hrs by sulforhodamine B assay relative to control; type: functional; conditions: A498, 48 h, read-out: GI
# DNA topoisomerase 2-beta [23] = target: T1, DNA topoisomerase 2-beta; assay: Inhibition of human topoisomerase-2B after 2 hrs by ELISA
# RPMI-8226 = assay: Growth inhibition of human RPMI8226 cells at 10^-5 M incubated for 48 hrs by sulforhodamine B assay relative to control; type: functional; conditions: RPMI-8226, 48 h, read-out: GI
# Pseudomonas aeruginosa = assay: Antibacterial activity against Pseudomonas aeruginosa at 37 degC measured after 24 hrs by agar disc diffusion method; type: functional
# UO-31 [24] = assay: Cell cycle arrest in human UO31 cells assessed as accumulation at S phase at 0.72 uM after 24 hrs by propidium iodide staining based flow cytometry (reference value: 24.47%); type: functional
# HOP-62 = assay: Growth inhibition of human HOP62 cells at 10^-5 M incubated for 48 hrs by sulforhodamine B assay relative to control; type: functional; conditions: HOP-62, 48 h, read-out: GI
# NCI-H226 [25] = assay: Antiproliferative activity against human NCI-H226 cells after 48 hrs by MTT assay; type: functional, cell-based; conditions: NCI-H226, 48 h
# IGROV-1 [26] = assay: Antiproliferative activity against human IGROV1 cells after 48 hrs by MTT assay; type: functional, cell-based; conditions: IGROV-1, 48 h
# NCI-H226 [27] = assay: Potency index, ratio of doxorubicin IC50 to compound IC50 for antiproliferative activity against human NCI-H226 cells; type: functional
# Escherichia coli = assay: Antibacterial activity against Escherichia coli at 37 degC measured after 24 hrs by agar disc diffusion method; type: functional
# MDA-MB-468 [28] = assay: Antiproliferative activity against human MDA-MB-468 cells after 48 hrs by MTT assay; type: functional, cell-based; conditions: MDA-MB-468, 48 h
# HL-60 = assay: Antiproliferative activity against human HL60 cells after 48 hrs by MTT assay; type: functional, cell-based; conditions: HL-60, 48 h
# UO-31 [29] = assay: Induction of apoptosis in human UO31 cells assessed as caspase-3 activation by measuring active caspase-3 level at 6.44 uM by […] (reference value: 66 pg/ml); type: functional
# T1 sequence (Q02880 whole entry): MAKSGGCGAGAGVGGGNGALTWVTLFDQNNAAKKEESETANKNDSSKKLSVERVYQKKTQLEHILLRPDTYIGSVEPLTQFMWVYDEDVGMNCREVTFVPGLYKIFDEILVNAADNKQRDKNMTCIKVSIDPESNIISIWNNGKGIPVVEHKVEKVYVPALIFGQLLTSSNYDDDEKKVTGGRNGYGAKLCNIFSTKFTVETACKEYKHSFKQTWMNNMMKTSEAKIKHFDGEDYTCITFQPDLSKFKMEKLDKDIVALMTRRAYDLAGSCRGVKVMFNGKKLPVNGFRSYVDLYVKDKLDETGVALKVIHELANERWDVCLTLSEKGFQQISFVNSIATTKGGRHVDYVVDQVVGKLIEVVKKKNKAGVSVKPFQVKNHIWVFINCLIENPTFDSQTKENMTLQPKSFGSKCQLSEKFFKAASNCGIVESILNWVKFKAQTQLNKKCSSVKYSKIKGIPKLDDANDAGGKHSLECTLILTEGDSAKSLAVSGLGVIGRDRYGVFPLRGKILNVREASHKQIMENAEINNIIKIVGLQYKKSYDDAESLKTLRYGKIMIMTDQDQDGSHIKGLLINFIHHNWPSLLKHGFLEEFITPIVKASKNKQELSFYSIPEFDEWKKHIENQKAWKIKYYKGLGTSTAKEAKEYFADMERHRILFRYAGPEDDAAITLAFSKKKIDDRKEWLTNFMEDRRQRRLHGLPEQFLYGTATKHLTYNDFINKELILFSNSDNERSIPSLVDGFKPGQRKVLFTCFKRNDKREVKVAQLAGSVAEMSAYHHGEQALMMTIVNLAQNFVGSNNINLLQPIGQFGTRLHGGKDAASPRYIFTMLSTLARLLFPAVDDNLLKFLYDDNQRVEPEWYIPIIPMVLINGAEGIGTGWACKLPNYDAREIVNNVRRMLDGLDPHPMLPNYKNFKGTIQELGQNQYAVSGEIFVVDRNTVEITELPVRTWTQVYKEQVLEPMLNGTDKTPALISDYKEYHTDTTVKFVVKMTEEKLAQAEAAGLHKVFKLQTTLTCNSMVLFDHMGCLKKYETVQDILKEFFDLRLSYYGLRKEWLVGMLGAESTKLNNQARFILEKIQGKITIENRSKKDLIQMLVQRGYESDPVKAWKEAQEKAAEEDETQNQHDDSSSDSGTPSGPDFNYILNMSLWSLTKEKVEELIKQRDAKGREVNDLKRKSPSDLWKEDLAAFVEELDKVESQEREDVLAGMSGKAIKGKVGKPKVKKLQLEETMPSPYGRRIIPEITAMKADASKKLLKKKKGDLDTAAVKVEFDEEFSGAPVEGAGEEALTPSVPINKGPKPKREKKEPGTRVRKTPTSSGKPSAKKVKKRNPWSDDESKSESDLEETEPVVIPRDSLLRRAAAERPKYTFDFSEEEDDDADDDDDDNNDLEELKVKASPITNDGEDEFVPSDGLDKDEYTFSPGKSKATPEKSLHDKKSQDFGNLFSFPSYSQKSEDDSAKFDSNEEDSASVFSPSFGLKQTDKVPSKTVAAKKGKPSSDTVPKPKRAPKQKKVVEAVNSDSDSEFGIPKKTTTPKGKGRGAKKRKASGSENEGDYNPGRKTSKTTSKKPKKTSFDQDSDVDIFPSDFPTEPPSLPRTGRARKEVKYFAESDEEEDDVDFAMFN
smiles,measurement,setting,value
O=C(CN1CCN(c2cc3c(cc2F)c(=O)c(C(=O)O)cn3C2CC2)CC1)N/N=C/c1cc2ccccc2[nH]1,LC50,UO-31 [1],15.1 µM
same,inhibition of growth at 10 µM,HOP-92,29.8%
same,inhibition of growth at 10 µM,MDA-MB-231,28.1%
same,inhibition of growth at 10 µM,SK-MEL-5,< 20%
same,inhibition of growth at 10 µM,NCI-H226 [2],34.4%
same,CC50,IGROV-1 [3],18.8 µM
same,inhibition of growth at 10 µM,K562,< 20%
same,Ratio IC50,DNA topoisomerase 2-beta [4],4
same,inhibition of growth at 10 µM,UO-31 [5],34.1%
same,Activity,UO-31 [6],4.35%
same,inhibition of growth at 10 µM,SNB-75,< 20%
same,Ratio IC50,IGROV-1 [7],5.8
same,IC50,UO-31 [8],0.72 µM
same,inhibition of growth at 10 µM,MDA-MB-468 [9],< 20%
same,Activity,UO-31 [10],93.84%
same,Ratio IC50,UO-31 [11],1.5 - 9
same,inhibition of growth at 10 µM,CCRF-CEM,< 20%
same,inhibition of growth at 10 µM,SF-539,< 20%
same,Activity,UO-31 [12],2.14%
same,inhibition of growth at 10 µM,PC-3,20.3%
same,Activity,UO-31 [13],0.33%
same,diameter of the inhibition zone (DIZ),Bacillus subtilis,27 mm
same,inhibition of growth at 10 µM,MCF7,< 20%
same,fold change (FC),UO-31 [14],8.8
same,Activity,UO-31 [15],11.32%
same,inhibition of growth at 10 µM,HL-60(TB),< 20%
same,inhibition of growth at 10 µM,T47D,25.5%
same,Ratio IC50,DNA topoisomerase 2-beta [16],3
same,Activity,UO-31 [17],62.64%
same,fold change (FC),UO-31 [18],2.06
same,inhibition of growth at 10 µM,LOX IMVI,36.6%
same,inhibition of growth at 10 µM,IGROV-1 [19],43.5%
same,CC50,NCI-H226 [20],15.4 µM
same,inhibition of growth at 10 µM,MOLT-4,< 20%
same,Activity,UO-31 [21],293.6 pg/mL
same,diameter of the inhibition zone (DIZ),Staphylococcus aureus,25 mm
same,Activity,UO-31 [22],1.88%
same,inhibition of growth at 10 µM,A498,< 20%
same,IC50,DNA topoisomerase 2-beta [23],0.86 µM
same,inhibition of growth at 10 µM,RPMI-8226,< 20%
same,diameter of the inhibition zone (DIZ),Pseudomonas aeruginosa,27 mm
same,Activity,UO-31 [24],21.69%
same,inhibition of growth at 10 µM,HOP-62,29%
same,IC50,NCI-H226 [25],1.02 µM
same,IC50,IGROV-1 [26],0.75 µM
same,Ratio IC50,NCI-H226 [27],4.9
same,diameter of the inhibition zone (DIZ),Escherichia coli,25 mm
COc1cccc2c1C(=O)c1c(O)c3c(c(O)c1C2=O)C[C@@](O)(C(=O)CO)C[C@@H]3O[C@H]1C[C@H](N)[C@H](O)[C@H](C)O1 [DOXORUBICIN],IC50,MDA-MB-468 [28],2.81 µM
same,IC50,HL-60,8.91 µM
same,IC50,UO-31 [8],6.44 µM
same,Activity,UO-31 [29],375.6 pg/mL
same,IC50,NCI-H226 [25],5.07 µM
same,IC50,IGROV-1 [26],4.36 µM
